According to US11091460B2, “Syk inhibitor and use method therefor” (CHIA TAI TIANQING PHARMACEUTICAL GROUP CO., LTD., priority 2017, dated 2021):
Read-outs that look alike come from different tables or passages of the source.

Tests used:
AKT phosphorylation = test: In vitro test of the inhibition effect on AKT phosphorylation (ELISA, Ramos cells); assay type: cell-based; details: Homo sapiens, Ramos
Description: Experimental Example 2: In Vitro Test of the Inhibition Effect of the Example Compounds on AKT Phosphorylation
• 2.1 Experimental Purpose: Intracellular protein kinase AKT phosphorylation detected by experiment was measured by enzyme-linked immunosorbent assay (ELISA), and the inhibition of the compound on protein kinase AKT phosphorylation was evaluated by an index of the half-cell inhibition concentration (IC50) value of the compound. • 2.2 Experimental Materials: • Cell line: Ramos cell line • Cell culture medium (RPMI1640, Invitrogen #22400-105; 10% serum Gibco #10099-141; L-glutamine 1×, Gibco #25030-081) • Experimental medium (without serum, RPM11640, Invitrogen #22400-105; L-glutamine 1×, Gibco #25030) • Lysis buffer (trishydroxymethylaminomethane hydrochloride, Invitrogen15567-1000 ml; sodium chloride, domestic; sodium deoxycholate, Sigma30970-25 G; polyethylene glycol octylphenyl ether, SigmaT9284-100 ml; dodecane sodium sulfonate, SigmaL3771; ethylenediaminetetraacetic acid, Invitrogen15575-038-100 ml; ultrapure water, MilliQ) • Protease inhibitor (Roche, 4693159001-30/BOX) • Phosphatase inhibitor mixture 2 (Sigma, P5726-5 ML) • Phosphatase inhibitor mixture 3 (Sigma, P0044-5 ML) • Goat Anti-Human immunoglobulin M (F(ab′)2 Goat Anti-Human IgM) (Jackson Immuno Research-109-006-129) • Phosphorylated AKT assay kit (Phospho-AKT 1/2/3 (ser473)) (TGR Bioscience, EKT002) • 10× Hank's balanced salt solution (Gibco #14065-056) • 96-well cell plate (Greiner #655090) • Compound V-well dilution plate (Axygen #WITP02280) • CO2 incubator (Thermo #371) • Centrifuge (Eppendorf #581 OR) • Vi-cell cell counter (Beckman Coulter) • Pipette (Eppendorf) • Pipette (Greiner) • Pipetting gun (Eppendorf) • Multi-purpose microplate reader (Envision Reader) • 2.3 Experimental procedures and methods: • a) Cell Seeding (Ramos Cells) • 1) The medium was preheated in a 37° C. water bath. Suspended cells and their culture solution were aspirated, centrifuged at 1000 rpm for 5 minutes. • 2) Aspirated the cell culture medium, added 10 mL of pre-warmed medium to the centrifuge tube, blew off the resuspended cells, pipette 1 mL of the cell suspension, and counted with Vi-cell; • 3) The Ramos cells were diluted with a medium to a density of 5×10^6/mL, and the diluted cells were added to a 96-well cell culture plate (100 μL/well) using a lance. Placed the cell plates in a 37° C., 5% CO2 incubator for overnight. • b) Cell starvation: • 1) After cultured the inoculation cells for overnight, centrifuged at 1000 rpm for 5 minutes on the next day, aspirated the original medium by a lance, added serum-free experimental medium, placed the cell plates in a 37° C., 5% CO2 incubator, and starved for overnight. • c) Compound preparation and dosing: • 1) The compound was diluted with dimethyl sulfoxide to give an initial concentration of 5 mM. A triple gradient dilution was done with compound V dilution plate to make 10 concentration points. • 2) Took another new compound V-well dilution plate, added 198 ul of serum-free experimental medium to each well, and then added 2 ul of the diluted compound above to each well, and mixed with a lance. […]

SYK kinase = molecular target: T1, SYK kinase (Homo sapiens, UniProt P43405); test: In vitro test of the inhibition effect on SYK kinase (HTRF); assay type: biochemical; details: tyrosine kinase 0.0156 ng/μL, substrate 0.2 uM, ATP 2 uM, 23° C. 1 hour, read-out: Inhibit SYK kinase IC50
T1 construct: purchased Invitrogen PV3857
Description: Experimental Example 1: In Vitro Test of the Inhibition Effect of the Example Compounds on SYK Kinase
Adenosine triphosphate concentration was controlled at 2 uM. • 4) Loaded with a Multidrop automatic dispenser, and a mixture of tyrosinase solution and tyrosine kinase-substrate-biotin/adenosine triphosphate was added in an amount of 5 ul per well, and incubated at 23° C. for 1 hour. • c) Detection phase: • 1) Added 13.33 mL of ethylenediaminetetraacetic acid solution to the Detection Buffer in the kit, added the specified amount of […] (Eu)-labeled antibody and streptavidin XL-665, and prepared the detection solution. • 2) Loaded with a Multidrop automatic dispenser, and 10 uL of the detection solution per well, incubated at 23° C. for 1 hour. It terminated the reaction of the enzyme and substrate mixture. • 3) Reading after centrifugation on a multi-function microplate reader, • d) Data Analysis: Analyzed the data with XL-Fit, and calculated the IC50 value of the compound.

[1] = Ramos cell line, compound 1 hour, goat anti-human IgM 10 ug/ml for 10 minutes, Phospho-AKT 1/2/3 (ser473) ELISA, read-out: Inhibit AKT phosphorylation IC50
[2] = read-out: Inhibit AKT phosphorylation IC50 (nM)

IC50 (AKT phosphorylation; [1]) [nM] | IC50 (SYK kinase) [nM] | SMILES | IC50 (AKT phosphorylation; [2]) [nM]
585 | 34.3 | Cn1c(=O)c(Nc2ccc(N3CCN(C4COC4)CC3)cn2)cc2cc(-c3cc[nH]n3)ccc21 [Example 4, 1-Methyl-3-[[5-(4-(oxetan-3-yl)piperazin-1-yl]pyridin-2-yl]amino]-6-(1H-pyrazol-3-yl)quinoline-2(1H)-one] | 
230 | 15 | Cn1c(=O)c(Nc2ccc(N3CCOCC3)cn2)cc2c(F)c(-c3cc[nH]n3)ccc21 [Example 11, 5-Fluoro-1-methyl-3-((5-morpholinopyridin-2-yl)amino)-6-(1H-pyrazol-3-yl)quinoline-2(1H)-one] | 
211 | 10.3 | Cn1c(=O)c(Nc2ccc(N3CCOCC3)cn2)cc2c(Cl)c(-c3cc[nH]n3)ccc21 [Example 7, 5-Chloro-1-methyl-3-((5-morpholinepyridin-2-yl)amino)-6-(1H-pyrazol-3-yl)quinoline-2(1H)-one] | 
170 | 12 | Cn1c(=O)c(Nc2ccc(N3CCN(C4COC4)CC3)cn2)cc2c(F)c(-c3cc[nH]n3)ccc21 [Example 9, 5-Fluoro-1-methyl-3-((5-(4-(oxetan-3-yl)piperazin-1-yl)pyridin-2-yl)amino)-6-(1H-pyrazol-3-yl)quinoline-2(1H)-one] | 
132 | 81 | Cn1c(=O)c(Nc2ccc(N3CCOCC3)cc2)nc2ccc(-c3c[nH]cn3)cc21 [Example 31, 7-(1H-imidazol-4-yl)-1-methyl-3-((4-morpholinephenyl)amino)quinoxaline-2(1H)-one] | 
750 | 114 | Cn1c(=O)c(Nc2ccc(N3CCC4(CC3)COC4)cn2)cc2c(F)c(-c3cc[nH]n3)ccc21 [Example 12, 5-Fluoro-1-methyl-3-[[5-(2-oxazole-7-azaspiro[3.5]nonane-7-yl)pyridin-2-yl]amino]-6-(1H-pyrazol-3)quinoline-2(1H)-one] | 
261 | 10.1 | CN1CCCN(c2ccc(Nc3nc4ccc(-c5cn[nH]c5)cc4n(C)c3=O)cc2)CC1 [Example 37, 1-Methyl-3-((4-(4-methyl-1,4-diazepan-1-yl)phenyl)amino)-7-(1H-pyrazol-4-yl)quinoxaline-2(1H)-one] | 

More lines, now with the values behind:

SMILES | IC50 (AKT phosphorylation; [1]) [nM] | IC50 (SYK kinase) [nM] | IC50 (AKT phosphorylation; [2]) [nM]
Cn1c(=O)c(Nc2ccc(N3CCNCC3)cc2)nc2ccc(-c3cn[nH]c3)cc21 [Example 39, 1-Methyl-3-((4-(piperazin-1-yl)phenyl)amino)-7-(1H-pyrazol-4-yl)quinoxaline-2(1H)-one] | 60.1 | 3.6 | 
Cn1c(=O)c(Nc2ccc(N3CCOCC3)cc2)nc2ccc(-c3csc(N)n3)cc21 [Example 59, 7-(2-Aminothiazol-4-yl)-1-methyl-3-((4-morpholinephenyl)amino)quinoxaline-2(1H)-one] | 248 | 46 | 
Cn1c(=O)c(Nc2ccc(C(C)(C)O)cn2)cc2c(F)c(-c3cc[nH]n3)ccc21 [Example 20] | 63 | 12.7 | 
Cc1[nH]ncc1-c1ccc2nc(Nc3ccc(N4CCOCC4)cc3)c(=O)n(C)c2c1 [Example 29, 1-Methyl-7-(5-methyl-1H-pyrazol-4-yl)-3-((4-morpholinephenyl)amino)quinoxaline-2(1H)-one] | 233 | 61 | 
Cn1c(=O)c(Nc2ccc(N3CCC(O)(C(F)(F)F)CC3)cn2)cc2c(F)c(-c3cc[nH]n3)ccc21 [Example 10, 5-Fluoro-3-[[5-[4-hydroxy-4-(trifluoromethyl)piperidin-1-yl]pyridin-2-yl]amino]-1-methyl-6-(1H-pyrazol-3-yl)quinoline-2(1H)-one] | 343 | 30 | 
Cn1c(=O)c(Nc2ccc(N3CCOCC3)cc2)nc2c(Cl)cc(-c3cn[nH]c3)cc21 [Example 41, 5-Chloro-1-methyl-3-((4-morpholinephenyl)amino)-7-(1H-pyrazol-4-yl)quinoxaline-2(1H)-one] | 98.8 | 4.8 | 
Cn1c(=O)c(Nc2ccc(N3CCOCC3)cn2)cc2c(F)c(-c3cc[nH]n3)c(F)cc21 [Example 8, 5,7-Difluoro-1-methyl-3-((5-morpholinopyridin-2-yl)amino)-6-(1H-pyrazol-3-yl)quinoline-2(1H)-one] | 188 | 54.6 | 
CN1CCN(c2ccc(Nc3nc4ccc(-c5cn[nH]c5)cc4n(C)c3=O)cc2)CC1 [Example 33, 1-Methyl-3((4-(4-methylpiperazin-1-yl)phenyl)amino)-7-(1H-pyrazol-4-yl) quinoxaline-2(1H)-one] |  | 3.2 | 226
Cn1c(=O)c(Nc2ccc(N3CCOCC3)c(F)c2)nc2ccc(-c3cn[nH]c3)cc21 [Example 48, 3-((3-Fluoro-4-morpholinephenyl)amino)-1-methyl-7-(1H-pyrazol-4-yl)quinoxaline-2(1H)-one] | 114 | 10.5 | 
Cn1c(=O)c(Nc2ccc(N3CCCC(C(=O)O)C3)cc2)nc2ccc(-c3cn[nH]c3)cc21 (centres unmarked) [Example 55, 1-(4-((4-methyl-3-oxo-6-(1H-pyrazol-4-yl)-3,4-dihydroquinoxalin-2-yl)amino)phenyl)piperidine-3-carboxylic acid] |  | 4.1 | 116
Cn1c(=O)c(Nc2ccc(S(=O)(=O)N3CCCCC3)cc2)nc2ccc(-c3cn[nH]c3)cc21 [Example 38, 1-Methyl-3-((4-(piperidin-1-ylsulfonyl)phenyl)amino)-7-(1H-pyrazol-4-yl)quinoxaline-2(1H)-one] | 343 | 40 | 
Cn1c(=O)c(Nc2ccccn2)cc2c(F)c(-c3cc[nH]n3)ccc21 [Example 15, 5-Fluoro-1-methyl-6-(1H-pyrazol-3-yl)-3-(pyridin-2-amine)-quinoline-2(1H)-one] | 425 | 101 | 
